Results reported in patent publication US11180510B2, “Xanthine derivatives and uses thereof as inhibitors of bromodomains of BET proteins” (Centre national de la recherche scientifique, priority 2017, dated 2021).
Read-outs that look alike come from different tables or passages of the source.

Columns and labels:
[1] = target: T1, Brd2(BD1) (Homo sapiens, UniProt P25440); experiment: HTRF BET selectivity profile, Brd2(BD1); type: binding; settings: for IC50: read-out: Brd2(BD1) IC50; for Ratio 2-1 vs 2-2: selectivity Brd2(BD1) vs Brd2(BD2), HTRF IC50
T1 construct: GST tagged bromodomain proteins were purchased from BPS Bioscience; purchased BPS Bioscience
T1 sequence (P25440 74-180 limits assumed): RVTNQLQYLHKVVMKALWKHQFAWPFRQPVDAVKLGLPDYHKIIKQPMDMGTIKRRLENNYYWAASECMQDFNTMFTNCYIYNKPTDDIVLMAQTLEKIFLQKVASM
Method: (§1) HTRF assays were performed in white 384 Well Small Volume™ HiBase Polystyrene Microplates (Greiner) with a total working volume of 20 μL. Compounds were dispensed, with 100 nL per well (0.5% final DMSO), from a concentration stock of 10 mM in 100% DMSO and with serial DMSO dilutions, using an Echo® 550 robot from the Access Labcyte platform (Labcyte) and based on the transfer of liquid by acoustic wave. Then, 19.5 μL of buffer is added, using a Multidrop Combi (Thermo Fisher Scientific). […] All HTRF reagents (donor and acceptor) were purchased from CisBio Bioassays and reconstituted according to the supplier protocols. The peptide was purchased from Genic Bio Synthetic. The BRD4(1) protein was produced and purified in the laboratory.
(§2) Percentage of inhibition was calculated using the following equation: % inhibition=[(compound signal)−(min signal)]/[(max signal)−(min signal)]*100, where ‘max signal’ is the signal ratio with the compound vehicle alone (DMSO) and ‘min signal’ the signal ratio without peptide.
(§3) Selectivity profiles of bromodomain inhibitors were performed as described in HTRF screen section. […] HTRF detection reagents (EPIgeneous™ Binding Domain kits) were purchased from Cisbio Bioassays and used according to supplier's protocol. GST tagged bromodomain proteins were purchased from BPS Bioscience and histone peptide from Genic Bio Synthetic.

[2] = target: T2, Brdt(BD1) (Homo sapiens, UniProt Q58F21); experiment: HTRF BET selectivity profile, Brdt(BD1); type: binding
T2 construct: GST tagged bromodomain proteins were purchased from BPS Bioscience; purchased BPS Bioscience
Method: (§4) HTRF assays were performed in white 384 Well Small Volume™ HiBase Polystyrene Microplates (Greiner) with a total working volume of 20 μL. Compounds were dispensed, with 100 nL per well (0.5% final DMSO), from a concentration stock of 10 mM in 100% DMSO and with serial DMSO dilutions, using an Echo® 550 robot from the Access Labcyte platform (Labcyte) and based on the transfer of liquid by acoustic wave. Then, 19.5 μL of buffer is added, using a Multidrop Combi (Thermo Fisher Scientific). Finally, for each assay, 200 nL of master mix (protein+donor+acceptor) and 200 nL of peptide Is added in the assay wells according to the final concentration and buffer described in Table 3, using the Echo® 550 robot (Labcyte). The IC50 measurements were performed in triplicates (Table 2 and 3). All HTRF reagents (donor and acceptor) were purchased from CisBio Bioassays and reconstituted according to the supplier protocols. The peptide was purchased from Genic Bio Synthetic. The BRD4(1) protein was produced and purified in the laboratory. HTRF signals were measured, after a final incubation (3 h or 6 h or overnight at room temperature or 4° C., according to the bromodomain), using a PHERAstar FS (BMG Labtech) with an excitation filter at 337 nm and fluorescence wavelength measurement at 620 and 665 nm, an integration delay of 60 μs and an integration time of 500 μs. Results were analyzed with a two-wavelengths signal ratio: [intensity (665 nm)/intensity (620 nm)]*104.
as §2, §3

[3] = target: T3, Brd4(BD2) (Homo sapiens, UniProt O60885); experiment: HTRF BET selectivity profile, Brd4(BD2); type: binding
T3 construct: GST tagged bromodomain proteins were purchased from BPS Bioscience; purchased BPS Bioscience
Method: as §4, §2, §3

[4] = target: T4, Brd3(BD2) (Homo sapiens, UniProt Q15059); experiment: HTRF BET selectivity profile, Brd3(BD2); type: binding
T4 construct: GST tagged bromodomain proteins were purchased from BPS Bioscience; purchased BPS Bioscience
T4 sequence (Q15059 306-415 limits assumed): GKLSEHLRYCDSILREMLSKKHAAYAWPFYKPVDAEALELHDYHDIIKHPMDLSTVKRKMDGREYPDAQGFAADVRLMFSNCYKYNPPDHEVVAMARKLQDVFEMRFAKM
Method: as §4, §2, §3

[5] = target: T5, Brd2(BD2) (Homo sapiens, UniProt P25440); experiment: HTRF BET selectivity profile, Brd2(BD2); type: binding; settings: read-out: Brd2(BD2) IC50
T5 construct: GST tagged bromodomain proteins were purchased from BPS Bioscience; purchased BPS Bioscience
T5 sequence (P25440 344-453 limits assumed): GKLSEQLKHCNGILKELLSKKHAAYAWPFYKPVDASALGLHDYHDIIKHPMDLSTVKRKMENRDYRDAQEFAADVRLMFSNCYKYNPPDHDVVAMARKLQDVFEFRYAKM
Method: as §1, §2, §3

[6] = target: T6, ATAD2 (Homo sapiens, UniProt Q6PL18); experiment: HTRF selectivity profile, ATAD2 (non-BET bromodomain control); type: binding
T6 construct: GST tagged bromodomain proteins were purchased from BPS Bioscience; purchased BPS Bioscience
T6 sequence (Q6PL18 980-1092 limits assumed): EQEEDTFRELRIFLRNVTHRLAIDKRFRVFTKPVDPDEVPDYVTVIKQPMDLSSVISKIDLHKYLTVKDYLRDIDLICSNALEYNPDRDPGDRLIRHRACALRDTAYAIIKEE
Method: HTRF assays were performed in white 384 Well Small Volume™ HiBase Polystyrene Microplates (Greiner) with a total working volume of 20 μL. Compounds were dispensed, with 100 nL per well (0.5% final DMSO), from a concentration stock of 10 mM in 100% DMSO and with serial DMSO dilutions, using an Echo® 550 robot from the Access Labcyte platform (Labcyte) and based on the transfer of liquid by acoustic wave. Then, 19.5 μL of buffer is added, using a Multidrop Combi (Thermo Fisher Scientific). […] HTRF signals were measured, after a final incubation (3 h or 6 h or overnight at room temperature or 4° C., according to the bromodomain), using a PHERAstar FS (BMG Labtech) with an excitation filter at 337 nm and fluorescence wavelength measurement at 620 and 665 nm, an integration delay of 60 μs and an integration time of 500 μs. Results were analyzed with a two-wavelengths signal ratio: [intensity (665 nm)/intensity (620 nm)]*104.
Percentage of inhibition was calculated using the following equation: % inhibition=[(compound signal)−(min signal)]/[(max signal)−(min signal)]*100, where ‘max signal’ is the signal ratio with the compound vehicle alone (DMSO) and ‘min signal’ the signal ratio without peptide. […]

[7] = system: Jurkat cells; experiment: Cell Titer-Glo cell viability assay, Jurkat; type: cell-based; settings: Homo sapiens, 72 h, mean of three experiments, NA = IC50 > maximal concentration used
Method: (§5) The human leukemia cell line Jurkat (ATCC® TIB-152) and Molm14 was maintained in RPMI-1640 medium or MEMα, respectively and supplemented both with 10% FBS at 37° C. and 5% CO2.
(§6) In antiproliferative assays, compounds were assayed for their growth inhibiting activity towards the described cancer cell lines using the Cell Titer-Glo Luminescent Cell Viability Assay as described by the manufacturer (Promega Corporation). Briefly, 10.000 cells were plated onto 96 well-plates (white with clear bottom (3610, Corning Costar)) in 90 μL media per well immediately before assay. 10 μL of compounds were added at different concentrations (ranging from 50 μM to 6 nM) to each well and cell cultures were incubated 37° C. during 72 h. Vehicle (DMSO) was used as negative control, JQ1 (a pan-BET inhibitor) was used as positive control and all compounds were tested in constant percentage of DMSO (1%). After addition of 50 μL Cell Titer-GLO, shaking 2 minutes and incubating at room temperature 10 minutes, the Luminescence was measured using a Centro luminometer LB960 (Berthold). Dose-response curves were generated and effective dose 50 values (EC50) were calculated using non-linear regression analysis (Graph Pad Prism).

[8] = system: Molm14 cells; experiment: Cell Titer-Glo cell viability assay, Molm14; type: cell-based; settings: Homo sapiens, MOLM-14, 72 h, mean of three experiments, NA = IC50 > maximal concentration used
Method: as §5, §6

[9] = target: T7, BRD4(BD1) (Homo sapiens, UniProt O60885); experiment: HTRF assay, BRD4(BD1)/histone peptide interaction; type: binding; set-up: made in house; settings: for IC50: HTRF; for Ratio 4-1 vs 4-2: selectivity Brd4(BD1) vs Brd4(BD2), HTRF IC50
[10] = target: Brd3(BD1) (Homo sapiens, UniProt Q15059); experiment: HTRF BET selectivity profile, Brd3(BD1); type: binding; set-up: GST tagged bromodomain proteins were purchased from BPS Bioscience; purchased BPS Bioscience; settings: for Ratio 3-1 vs 3-2: selectivity Brd3(BD1) vs Brd3(BD2), HTRF IC50
Chain of Brd3(BD1) (Q15059 34-140 limits assumed): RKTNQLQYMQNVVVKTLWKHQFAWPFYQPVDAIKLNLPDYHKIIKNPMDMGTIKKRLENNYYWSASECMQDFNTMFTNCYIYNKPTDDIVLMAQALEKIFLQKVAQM
Method: as §1, §2, §3

[11] = target: T7, BRD4(BD1); experiment: Isothermal Titration Calorimetry; type: binding; settings: ITC; read-out: Binding affinity (Kd) to BRD4(1) by Isothermal Titration Calorimetry
Method: FIG. 1. Isothermal Titration Calorimetry (ITC) of 43c. Thermogram (top) and non-linear least squares fit model of the integrated data (bottom) at 15° C. of Brd4 (BD1) […] as a function of the molar ratio of ligand to the protein.
ITC was used to evaluate the thermodynamics parameters of the binding between BRD4 (BD1) and the selected compounds. Titrations were carried out on a MicroCal ITC200 microcalorimeter (GE Healthcare, Piscataway, N.J.). Each experiment was designed using a titrant concentration (protein in the syringe generally between 100 and 400 μM) set 10 to 15 times the analyte concentration (compound in the cell generally between 10 and 40 μM) and using 13 injections at 25° C. A first small injection (generally 0.2 μL) was included in the titration protocol in order to remove air bubbles trapped in the syringe prior titration. Raw data were scaled after setting the zero to the titration saturation heat value. Integrated raw ITC data were fitted to a one site non-linear least squares fit model using the MicroCal Origin plugin as implemented in Origin 7 (Origin Lab). Finally, ΔG and TΔS values were calculated from the fitted ΔH and KA values using the equations ΔG=−R.T.inKA and ΔG=ΔH−TΔS.

[12] = system: 61 bromodomains; experiment: Thermal shift assay selectivity profile on 61 bromodomains; type: binding; settings: compound at 25 μM
Method: FIG. 3. Thermal Shift Assay (TSA) of 43c. The evaluation was performed on 61 bromodomains. A cut-off at +/−3.5° C. was set.
TSA “Bromoscan” assays (Reaction Biology) were performed in 384 well RT-PCR plate (BioRad) with a total working volume of 15 μL. The “BromoMelT™, containing the 61 GST- or His-tagged-bromodomains, SYPRO® Orange and a mix compounds as control, was purchased from Reaction Biology. For each point, 3 μL of protein (1×) and 12 μL master mix (buffer+SYPRO® Orange+compound at 25 μM or control mix compounds or DMSO (0.5%)) were mixed in plate. The plate was placed in a CFX384 RTQPC (BioRad), and heated 10 seconds at 25° C., then the temperature was increased from 25° C. to 90° C., by increment of 0.5° C. every 30 seconds. The fluorescence was recorded using FRET filters.

[13] = system: acute leukemia; settings: phase I study; cited from earlier work
[14] = mean of three experiments, NA = IC50 > 50 μM, read-out: Brd4(8D1) IC50
[15] = triplicates, NA = IC50 > maximal concentration of compound used

| Structure (SMILES) | IC50 [1] [µM] | Ratio 2-1 vs 2-2 [1] | IC50 [2] [µM] | IC50 [3] [µM] | IC50 [4] [µM] | IC50 [5] [µM] | IC50 [6] [µM] | IC50 [7] [µM] | IC50 [8] [µM] | IC50 [9, 14] [µM] | IC50 [9, 15] [µM] | Ratio 4-1 vs 4-2 [9] | IC50 [10] [µM] | Ratio 3-1 vs 3-2 [10] | Kd [11] [µM] | Bromodomain selectivity profile by thermal shift assay [12] | clinical response in acute leukemia [13] |
| --- | --- | --- | --- | --- | --- | --- | --- | --- | --- | --- | --- | --- | --- | --- | --- | --- | --- |
| CCn1cnc2c1c(=O)[nH]c(=O)n2Cc1ccc(CNS(=O)(=O)c2ccc(-c3ccccc3)cc2)cc1 [Compound 29b] | 3.31 | 5 | 19.7 | 17.7 | 13.5 | 16 | 24.6 | 26.5 | 10.6 | 0.45 | 0.45 | 39 | 0.897 | 15 |  |  |  |
| CCn1cnc2c1c(=O)[nH]c(=O)n2Cc1ccc(CNS(=O)(=O)c2ccc(OCc3ccccc3)cc2)cc1 [Compound 31a] | 1.46 | 9 | 8.51 | 9.71 | 13.5 | 12.8 |  | 19.4 | 1.8 | 0.355 | 0.355 | 27 | 0.596 | 23 | 0.433 | not pan-BET selective |  |
| Cc1sc2c(c1C)C(c1ccc(Cl)cc1)=N[C@@H](CC(=O)Nc1ccc(O)cc1)c1nnc(C)n1-2 [OTX015, (6S)-4-(4-chlorophenyl)-N-(4-hydroxyphenyl)-2,3,9-trimethyl-6H-thieno[3,2-f][1,2,4]triazolo[4,3-a][1,4]diazepine-6-acetamide] |  |  |  |  |  |  |  |  |  |  |  |  |  |  |  |  | induced remissions, including complete remission in two patients with refractory disease |
| CCn1cnc2c1c(=O)[nH]c(=O)n2Cc1ccc(CNS(=O)(=O)c2ccc(Oc3ccccc3)cc2)cc1 [Compound 30c, N-(4-((7-ethyl-2,6-dioxo-1,2,6,7-tetrahydro-3H-purin-3-yl)methyl)benzyl)-4-phenoxybenzenesulfonamide] | 0.868 | 3 | 1.18 | 4.59 | 3.16 | 2.49 |  | 10.3 | 9.2 | 0.51 | 0.51 | 9 | 0.633 | 5 | 0.641 | BRD4(1) and BRD3(1) selective |  |
